In the NIST ThermoML archive (doi:10.1021/acs.jced.7b00267):
± gives the expanded uncertainty stated by the source.

Conditions: 101.35 kPa, Liquid; for viscosity: Falling or rolling sphere viscometry; for mass density: Vibrating tube method

CCO [ethanol]
Conditions | mass density [kg/m3] | viscosity [mPa·s]
293.15 K | 789.5 ± 0.4 | 1.194 ± 0.037
298.15 K | 785.2 ± 0.4 | 1.085 ± 0.034
303.15 K | 780.8 ± 0.4 | 0.9897 ± 0.031
308.15 K | 776.5 ± 0.4 | 0.9036 ± 0.028
313.15 K | 772.1 ± 0.4 | 0.8277 ± 0.026
318.15 K | 767.7 ± 0.4 | 0.759 ± 0.023
323.15 K | 763.2 ± 0.4 | 0.6978 ± 0.022
328.15 K | 758.7 ± 0.4 | 0.6434 ± 0.02
333.15 K | 754.1 ± 0.4 | 0.5942 ± 0.018
